pIC50: −log10 of the molar value.
Molecular target: T1, hTDO2 (Homo sapiens, UniProt P48775)
T1 construct: endogenous in cells; host or cells: A172 human brain glioblastoma cells (ATCC CRL-1620)
Assay: Cellular assay for TDO2 activity determination in A172 cells
Type: cell-based
Details: human glioblastoma A172 cells naturally expressing hTDO2; overnight incubation; kynurenine by absorbance at 480 nm
Method in brief: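 A172 glioblastoma cells endogenously expressing hTDO2, 1.25×10^4 cells/well, incubated overnight at 37 °C, 5% CO2 in IMDM with 2% FBS and ten compound concentrations. Supernatant kynurenine measured after TCA treatment and Ehrlich's reagent (4-dimethylaminobenzaldehyde) by absorbance at 480 nm against a kynurenine standard curve, then curve-fitted.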

T1 sequence (P48775 whole entry): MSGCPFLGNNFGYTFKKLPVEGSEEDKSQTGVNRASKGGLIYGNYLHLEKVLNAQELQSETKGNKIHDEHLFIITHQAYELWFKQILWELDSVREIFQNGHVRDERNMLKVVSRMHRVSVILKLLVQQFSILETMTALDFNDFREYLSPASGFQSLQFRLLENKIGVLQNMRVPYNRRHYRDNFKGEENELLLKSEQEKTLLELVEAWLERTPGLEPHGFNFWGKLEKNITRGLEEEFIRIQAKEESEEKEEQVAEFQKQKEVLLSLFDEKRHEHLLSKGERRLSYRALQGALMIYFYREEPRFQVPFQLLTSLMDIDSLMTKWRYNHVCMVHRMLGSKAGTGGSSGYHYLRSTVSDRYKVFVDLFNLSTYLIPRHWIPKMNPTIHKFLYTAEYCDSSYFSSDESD

| pIC50 | SMILES |
| --- | --- |
| 6.64 | CN(C)CCN1Cc2cc(-c3c[nH]c4cc(F)ccc34)ccc2S1(=O)=O [Example 32, 2-(2-(dimethylamino)ethyl)-5-(6-fluoro-1H-indol-3-yl)-2,3-dihydrobenzo[d]isothiazole 1,1-dioxide] |
| 7.59 | CC1c2cc(-c3c[nH]c4cc(F)ccc34)ccc2S(=O)(=O)N1CC(N)=O (single isomer, unassigned; (-)) [Example 116] |
| 7.30 | CC1c2cc(-c3c[nH]c4cc(F)ccc34)ccc2S(=O)(=O)N1CCN1CCOC1=O (single isomer, unassigned; (-)) [Example 70, (−)-3-(2-(5-(6-fluoro-1H-indol-3-yl)-3-methyl-1,1-dioxidobenzo[d]isothiazol-2(3H)-yl)ethyl)oxazolidin-2-one] |
| 6.58 | CNC(=O)C(C)N1C(C)c2cc(-c3c[nH]c4cc(F)ccc34)ccc2S1(=O)=O (single isomer, unassigned; (-)) [Example 148, (−)-2-(5-(6-fluoro-1H-indol-3-yl)-3-methyl-1,1-dioxidobenzo[d]isothiazol-2(3H)-yl)-N-methylpropanamide] |
| 6.63 | CNCC1NS(=O)(=O)c2ccc(-c3c[nH]c4cc(F)ccc34)cc21 (single isomer, unassigned; (+)) [Example 138, (+)-5-(6-fluoro-1H-indol-3-yl)-3-((methylamino)methyl)-2,3-dihydrobenzo[d]isothiazole 1,1-dioxide] |
| 7.11 | CC1c2cc(-c3c[nH]c4cc(F)ccc34)ccc2S(=O)(=O)N1CCC(N)=O (single isomer, unassigned; (-)) [Example 48, (−)-3-(5-(6-fluoro-1H-indol-3-yl)-3-methyl-1,1-dioxidobenzo[d]isothiazol-2(3H)-yl)propanamide] |
| 6.57 | CC1c2cc(-c3c[nH]c4cc(F)ccc34)ccc2S(=O)(=O)N1C[C@@H](O)CO (single isomer, unassigned) [Example 93] |
| 6.90 | O=S1(=O)NC(CCO)c2cc(-c3c[nH]c4cc(F)ccc34)ccc21 (single isomer, unassigned; (-)) [Example 29, (−)-5-(6-fluoro-1H-indol-3-yl)-3-(2-hydroxyethyl)-2,3-dihydrobenzo[d]isothiazole 1,1-dioxide] |
| 6.50 | CC1c2cc(-c3c[nH]c4cc(F)ccc34)ccc2S(=O)(=O)N1CC1(C)COC(=O)N1 (single isomer, unassigned) [Example 87] |
| 7.15 | CC1c2cc(-c3c[nH]c4cc(F)ccc34)ccc2S(=O)(=O)N1CCO (single isomer, unassigned; (+)) [Example 63, (+)-5-(6-fluoro-1H-indol-3-yl)-2-(2-hydroxyethyl)-3-methyl-2,3-dihydrobenzo[d]isothiazole 1,1-dioxide] |
| 7.09 | CC(C)C1NS(=O)(=O)c2ccc(-c3c[nH]c4cc(F)ccc34)cc21 (single isomer, unassigned; (-)) [Example 9, (−)-5-(6-fluoro-1H-indol-3-yl)-3-isopropyl-2,3-dihydrobenzo-[d]isothiazole 1,1-dioxide] |
| 6.38 | CNC(=O)C(N)CN1C(C)c2cc(-c3c[nH]c4cc(F)ccc34)ccc2S1(=O)=O (single isomer, unassigned; (-)) [Example 103, (−)-2-amino-3-(5-(6-fluoro-1H-indol-3-yl)-3-methyl-1,1-dioxidobenzo[d]isothiazol-2(3H)-yl)-N-methylpropanamide] |
| 6.33 | CC1c2cc(-c3c[nH]c4cc(F)ccc34)ccc2S(=O)(=O)N1C[C@]1(C)CCC(=O)N1 (single isomer, unassigned; (+)) [Example 81] |
| 5.46 | Cc1cc(O)n(CCN2C(C)c3cc(-c4c[nH]c5cc(F)ccc45)ccc3S2(=O)=O)n1 (single isomer, unassigned; (-)) [Example 68, (−)-5-(6-fluoro-1H-indol-3-yl)-2-(2-(5-hydroxy-3-methyl-1H-pyrazol-1-yl)ethyl)-3-methyl-2,3-dihydrobenzo[d]isothiazole 1,1-dioxide] |
| 6.55 | CS(=O)(=O)NCC1NS(=O)(=O)c2ccc(-c3c[nH]c4cc(F)ccc34)cc21 (single isomer, unassigned; (+)) [Example 140, (+)-N-((5-(6-fluoro-1H-indol-3-yl)-1,1-dioxido-2,3-dihydrobenzo[d]isothiazol-3-yl)methyl)methanesulfonamide] |
| 7.03 | CNC(=O)C(CN1C(C)c2cc(-c3c[nH]c4cc(F)ccc34)ccc2S1(=O)=O)OC (single isomer, unassigned; (-)) [Example 108, (−)-3-(5-(6-fluoro-1H-indol-3-yl)-3-methyl-1,1-dioxidobenzo[d]isothiazol-2(3H)-yl)-2-methoxy-N-methylpropanamide] |

| pIC50 | SMILES |
| --- | --- |
| 7.57 | C[C@H]1NS(=O)(=O)c2ccc(-c3c[nH]c4cc(F)ccc34)cc21 (single isomer, unassigned) [Example 1, (+)-5-(6-fluoro-1H-indol-3-yl)-3-methyl-2,3-dihydro-1,2-benzothiazole 1,1-dioxide] |
| 7.19 | CCC1NS(=O)(=O)c2ccc(-c3c[nH]c4cc(F)ccc34)cc21 (single isomer, unassigned; (+)) [Example 3, (+)-3-ethyl-5-(6-fluoro-1H-indol-3-yl)-2,3-dihydrobenzo[d]-isothiazole 1,1-dioxide] |
| 7.17 | CC1c2cc(-c3c[nH]c4cc(F)ccc34)ccc2S(=O)(=O)N1C1CNC(=O)C1 (single isomer, unassigned; (-)) [Example 124, (−)-4-(5-(6-fluoro-1H-indol-3-yl)-3-methyl-1,1-dioxido-benzo[d]isothiazol-2(3H)-yl)pyrrolidin-2-one] |
| 7.41 | Cn1cnc(CN2C(CO)c3cc(-c4c[nH]c5cc(F)ccc45)ccc3S2(=O)=O)n1 (single isomer, unassigned; (-)) [Example 129, (−)-5-(6-fluoro-1H-indol-3-yl)-3-(hydroxymethyl)-2-((1-methyl-1H-1,2,4-triazol-3-yl)methyl)-2,3-dihydrobenzo[d]isothiazole 1,1-dioxide] |
| 7.31 | CC(=O)N1CCC(N2C(C)c3cc(-c4c[nH]c5cc(F)ccc45)ccc3S2(=O)=O)C1 (single isomer, unassigned; (-)) [Example 75, (−)-1-(3-(5-(6-fluoro-1H-indol-3-yl)-3-methyl-1,1-dioxidobenzo[d]isothiazol-2(3H)-yl)pyrrolidin-1-yl)ethanone] |
| 7.48 | CNC(=O)C(O)CN1C(C)c2cc(-c3c[nH]c4cc(F)ccc34)ccc2S1(=O)=O (single isomer, unassigned; (+)) [Example 97, (+)-3-(5-(6-fluoro-1H-indol-3-yl)-3-methyl-1,1-dioxidobenzo[d]isothiazol-2(3H)-yl)-2-hydroxy-N-methylpropanamide] |
| 6.41 | CC1c2cc(-c3c[nH]c4cc(F)ccc34)ccc2S(=O)(=O)N1C[C@@]1(C)CCC(=O)N1 (single isomer, unassigned; (-)) [Example 84] |
| 6.08 | O=S1(=O)c2ccc(-c3c[nH]c4cc(F)ccc34)cc2C(CO)N1CC(O)CO (single isomer, unassigned; (+)) [Example 141, (+)-2-(2,3-dihydroxypropyl)-5-(6-fluoro-1H-indol-3-yl)-3-(hydroxymethyl)-2,3-dihydrobenzo[d]isothiazole 1,1-dioxide] |
| 6.57 | CCC1NS(=O)(=O)c2ccc(-c3c[nH]c4cc(F)ccc34)cc21 (single isomer, unassigned; (-)) [Example 4, (−)-3-ethyl-5-(6-fluoro-1H-indol-3-yl)-2,3-dihydrobenzo[d]isothiazole 1,1-dioxide] |
| 6.28 | CS(=O)(=O)NCC1NS(=O)(=O)c2ccc(-c3c[nH]c4cc(F)ccc34)cc21 (single isomer, unassigned; (-)) [Example 139, (−)-N-((5-(6-fluoro-1H-indol-3-yl)-1,1-dioxido-2,3-dihydrobenzo[d]isothiazol-3-yl)methyl)methanesulfonamide] |
| 6.45 | CC1c2cc(-c3c[nH]c4cc(F)ccc34)ccc2S(=O)(=O)N1CC1(C)COC(=O)N1 (single isomer, unassigned; (+)) [Example 90, (+)-4-((5-(6-fluoro-1H-indol-3-yl)-3-methyl-1,1-dioxidobenzo[d]isothiazol-2(3H)-yl)methyl)-4-methyloxazolidin-2-one] |
| 6.80 | CCOC(=O)NCCN1C(C)c2cc(-c3c[nH]c4cc(F)ccc34)ccc2S1(=O)=O (single isomer, unassigned; (+)) [Example 110, (+)-ethyl (2-(5-(6-fluoro-1H-indol-3-yl)-3-methyl-1,1-dioxidobenzo[d]isothiazol-2(3H)-yl)ethyl)carbamate] |
| 7.04 | CC1c2cc(-c3c[nH]c4cc(F)ccc34)ccc2S(=O)(=O)N1C1CCNC(=O)C1 (single isomer, unassigned; (+)) [Example 120] |
| 6.73 | CNC(=O)C(CN1C(C)c2cc(-c3c[nH]c4cc(F)ccc34)ccc2S1(=O)=O)OC (single isomer, unassigned; (+)) [Example 105, (+)-3-(5-(6-fluoro-1H-indol-3-yl)-3-methyl-1,1-dioxidobenzo[d]isothiazol-2(3H)-yl)-2-methoxy-N-methylpropanamide] |
| 6.57 | CC1c2cc(-c3c[nH]c4cc(F)ccc34)ccc2S(=O)(=O)N1CC[S+](C)[O-] (single isomer, unassigned; (+)) [Example 58, (+)-5-(6-fluoro-1H-indol-3-yl)-3-methyl-2-(2-(methylsulfinyl)ethyl)-2,3-dihydrobenzo[d]isothiazole 1,1-dioxide] |
| 6.47 | CC1c2cc(-c3c[nH]c4cc(F)ccc34)ccc2S(=O)(=O)N1CCC(=O)N1CCNCC1 (single isomer, unassigned; (-)) [Example 50, (−)3-(5-(6-fluoro-1H-indol-3-yl)-3-methyl-1,1-dioxidobenzo[d]isothiazol-2(3H)-yl)-1-(piperazin-1-yl)propan-1-one] |

Source: US9873690B2, “3-indol substituted derivatives, pharmaceutical compositions and methods for use” (Pfizer Inc., priority 2015, dated 2018)
